Measured values from PubChem BioAssay (NCI).
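Assay format: 96-well plates, 48-hour exposure. GI50: concentration for 50% inhibition of growth. TGI is the concentration that stops growth completely.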

Legend:
Assay in all cases: DTP human tumour cell line panel, 48 h
[1] = test system: UO-31 renal
[2] = test system: SK-MEL-2 melanoma
[3] = test system: PC-3 prostate
[4] = test system: RPMI-8226 leukemia
[5] = test system: BT-549 breast
[6] = test system: M14 melanoma
[7] = test system: U251 CNS
[8] = test system: NCI/ADR-RES ovarian
[9] = test system: COLO 205 colon
[10] = test system: K-562 leukemia

Row | Structure (SMILES) | GI50 [1] [µM] | TGI [1] [µM] | GI50 [2] [µM] | TGI [2] [µM] | GI50 [3] [µM] | TGI [3] [µM] | GI50 [4] [µM] | TGI [4] [µM] | GI50 [5] [µM] | TGI [5] [µM] | GI50 [6] [µM] | TGI [6] [µM] | GI50 [7] [µM] | TGI [7] [µM] | GI50 [8] [µM] | TGI [8] [µM] | GI50 [9] [µM] | TGI [9] [µM] | GI50 [10] [µM] | TGI [10] [µM]
1 | CN1CCN(c2ccc(NC3=CC(=O)c4ncncc4C3=O)cc2)CC1 | 0.27 | 0.761 | 1.54 | 3.45 | 0.289 | 1.14 | 0.261 | 0.75 | 1.6 | 3.04 | 0.276 | 0.744 | 0.722 | 1.94 | 0.294 | 1.01 | 1.93 | 4.07 | – | –
2 | O=C1C(Cl)=C(NCCCN(CCCNC2=C(Cl)C(=O)c3ccccc3C2=O)C2=C(Cl)C(=O)c3ccccc3C2=O)C(=O)c2ccccc21 | 1.25 | 5.93 | – | – | 2.15 | 16.7 | 3.8 | > 100 | 2.5 | 13.5 | – | – | 2.66 | 6.27 | 4.06 | > 100 | – | – | – | –
3 | COc1cc(-c2ccc[nH]2)[nH]c1/C=C1\N=C(C)C(CC(=O)OCC(C)(C)C)=C1C | 0.173 | 0.382 | 0.157 | 0.415 | 0.1 | 1.65 | – | – | 0.286 | 1.87 | 0.212 | 0.658 | 0.141 | 1.23 | 0.357 | 1.46 | 0.206 | 1.22 | 0.34 | 1.37
4 | CN(C)c1ccc2[nH]c3c(C(N)=O)cc(=O)c(=O)c=3oc2c1 | – | – | 1.87 | 5.34 | 2.77 | > 100 | 0.502 | > 100 | – | – | 2.93 | > 100 | 1.8 | 9.8 | 1.81 | 8.39 | 3.5 | > 100 | 0.358 | > 100
5 | COc1ccc(C(=O)C(C(=O)C(=O)NCCCNC(=O)C(=O)C(C(=O)c2ccc(OC)cc2)c2ccc(OC)cc2)c2ccc(OC)cc2)cc1 (centres undefined) | – | > 100 | – | > 100 | – | – | – | > 100 | – | – | – | > 100 | – | > 100 | – | – | – | > 100 | – | > 100
6 | COC1/C(=C\C(C)=O)c2ccccc2N1C(C)=O (centres undefined) | – | > 100 | – | > 100 | – | – | – | > 100 | – | – | – | > 100 | – | > 100 | – | – | – | > 100 | – | > 100
7 | Clc1ccc(-c2nc(NCc3ccco3)c3ccccc3n2)c(Cl)c1 | 26.8 | > 100 | 36.8 | > 100 | 13.9 | 55.7 | 5.64 | 81.9 | – | – | 17.4 | 36.1 | 16.5 | 47.4 | 26.3 | > 100 | 21.4 | > 100 | 8.7 | 60.4
8 | CCCCCCCCN=C(NCCCCCCCC)SCc1cccc2ccccc12 | 1.27 | 2.86 | 2.14 | 3.77 | 1.49 | 2.89 | 2.05 | 4.4 | – | – | 1.44 | 2.86 | 1.59 | 2.98 | 1.62 | 3.05 | 1.48 | 2.95 | 0.975 | 3.26
